# Results as given in PubChem BioAssay (NCI).
#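 In this assay, cells in 96-well plates receive the compound at five concentrations for 48 hours. Endpoints are linearly interpolated between the surrounding concentrations. TGI is the concentration that stops growth completely.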
# Columns and labels:
# Test in all cases: inhibition of tumour cell growth, NCI panel, 48 h
# [1] = test system: 786-0 renal
# [2] = test system: A498 renal
# [3] = test system: A549 NSCLC
# [4] = test system: ACHN renal
# [5] = test system: BT-549 breast
# [6] = test system: CAKI-1 renal
# [7] = test system: CCRF-CEM leukemia
# [8] = test system: COLO 205 colon
# [9] = test system: DLD-1 colon
# [10] = test system: DMS 114 small cell lung
# [11] = test system: DMS 273 small cell lung
# [12] = test system: DU-145 prostate
# [13] = test system: EKVX NSCLC
# [14] = test system: HCC-2998 colon
# [15] = test system: HCT-116 colon
# [16] = test system: HCT-15 colon
# [17] = test system: HL-60(TB) leukemia
# [18] = test system: HOP-18 NSCLC
# [19] = test system: HOP-62 NSCLC
# [20] = test system: HOP-92 NSCLC
# [21] = test system: HS 578T breast
# [22] = test system: HT29 colon
# [23] = test system: IGROV1 ovarian
# [24] = test system: K-562 leukemia
# [25] = test system: KM12 colon
# [26] = test system: KM20L2 colon
# [27] = test system: LOX IMVI melanoma
# [28] = test system: LXFL 529 NSCLC
# [29] = test system: M14 melanoma
# [30] = test system: M19-MEL melanoma
# [31] = test system: MALME-3M melanoma
# [32] = test system: MCF7 breast
# [33] = test system: MDA-MB-231 breast
# [34] = test system: MDA-MB-435
# [35] = test system: MDA-N
# [36] = test system: MOLT-4 leukemia
# [37] = test system: NCI-H226 lung
# [38] = test system: NCI-H23 lung
# [39] = test system: NCI-H460 lung
# [40] = test system: NCI-H522 lung
# [41] = test system: NCI/ADR-RES ovarian
# [42] = test system: OVCAR-3 ovarian
# [43] = test system: OVCAR-4 ovarian
# [44] = test system: OVCAR-5 ovarian
# [45] = test system: OVCAR-8 ovarian
# [46] = test system: PC-3 prostate
# [47] = test system: RPMI-8226 leukemia
# [48] = test system: RXF 393 renal
# [49] = test system: RXF-631 renal
# [50] = test system: SF-268 CNS
# [51] = test system: SF-295 CNS
# [52] = test system: SF-539 CNS
# [53] = test system: SK-MEL-2 melanoma
# [54] = test system: SK-MEL-28 melanoma
# [55] = test system: SK-MEL-5 melanoma
# [56] = test system: SK-OV-3 ovarian
# [57] = test system: SN12C renal
# [58] = test system: SNB-19 CNS
# [59] = test system: SNB-75 CNS
# [60] = test system: SNB-78 CNS
# [61] = test system: SR leukemia
# [62] = test system: SW-620 colon
# [63] = test system: T-47D breast
# [64] = test system: TK-10 renal
# [65] = test system: U251 CNS
# [66] = test system: UACC-257 melanoma
# [67] = test system: UACC-62 melanoma
# [68] = test system: UO-31 renal
# [69] = test system: XF 498 CNS
compound,measurement,setting,value
CN(C)CCCNc1ccc2ncn3c4ccc(O)cc4c(=O)c1c23,TGI,[1],14.7 µM
same,TGI,[2],7.6 µM
same,TGI,[3],5.82 µM
same,TGI,[4],4.04 µM
same,TGI,[5],31.9 µM
same,TGI,[6],1.59 µM
same,TGI,[7],32.6 µM
same,TGI,[8],15.3 µM
same,TGI,[9],16.5 µM
same,TGI,[10],16.7 µM
same,TGI,[11],12.1 µM
same,TGI,[12],21.2 µM
same,TGI,[13],16.6 µM
same,TGI,[14],18.1 µM
same,TGI,[15],11.2 µM
same,TGI,[16],16.8 µM
same,TGI,[17],13.1 µM
same,TGI,[18],27.4 µM
same,TGI,[19],8.97 µM
same,TGI,[20],15.3 µM
same,TGI,[21],13.6 µM
same,TGI,[22],12.9 µM
same,TGI,[23],10.5 µM
same,TGI,[24],28 µM
same,TGI,[25],16.7 µM
same,TGI,[26],14.4 µM
same,TGI,[27],3.13 µM
same,TGI,[28],17.7 µM
same,TGI,[29],16.4 µM
same,TGI,[30],15.3 µM
same,TGI,[31],16 µM
same,TGI,[32],1.27 µM
same,TGI,[33],21.7 µM
same,TGI,[34],19.3 µM
same,TGI,[35],17.6 µM
same,TGI,[36],10.1 µM
same,TGI,[37],3.59 µM
same,TGI,[38],10.7 µM
same,TGI,[39],4.56 µM
same,TGI,[40],3.16 µM
same,TGI,[41],> 100 µM
same,TGI,[42],17.6 µM
same,TGI,[43],8.01 µM
same,TGI,[44],15.7 µM
same,TGI,[45],11.7 µM
same,TGI,[46],14.4 µM
same,TGI,[47],18.2 µM
same,TGI,[48],2.91 µM
same,TGI,[49],12.2 µM
same,TGI,[50],13.5 µM
same,TGI,[51],15.6 µM
same,TGI,[52],15.7 µM
same,TGI,[53],19.6 µM
same,TGI,[54],18.1 µM
same,TGI,[55],9.57 µM
same,TGI,[56],15.1 µM
same,TGI,[57],16.2 µM
same,TGI,[58],20.1 µM
same,TGI,[59],11.7 µM
same,TGI,[60],26.6 µM
same,TGI,[61],1.55 µM
same,TGI,[62],16.4 µM
same,TGI,[63],30.5 µM
same,TGI,[64],19.8 µM
same,TGI,[65],4.6 µM
same,TGI,[66],24.5 µM
same,TGI,[67],13.5 µM
same,TGI,[68],11.4 µM
same,TGI,[69],19.6 µM
COc1ccc2nc3cc(Cl)ccc3c(Sc3ccc(NC(C)=O)cc3)c2c1,TGI,[1],> 20.1 µM
same,TGI,[2],> 60.9 µM
same,TGI,[3],> 100 µM
same,TGI,[4],18.7 µM
same,TGI,[6],> 50.6 µM
same,TGI,[7],> 100 µM
same,TGI,[8],> 34.2 µM
same,TGI,[9],> 24.1 µM
same,TGI,[10],14.1 µM
same,TGI,[11],21.6 µM
same,TGI,[13],> 23.8 µM
same,TGI,[14],5.93 µM
same,TGI,[15],> 45.3 µM
same,TGI,[17],52 µM
same,TGI,[18],> 53.7 µM
same,TGI,[19],> 60.2 µM
same,TGI,[20],> 27 µM
same,TGI,[22],> 100 µM
same,TGI,[23],> 56 µM
same,TGI,[24],> 100 µM
same,TGI,[25],> 35.2 µM
same,TGI,[26],> 42.1 µM
same,TGI,[27],11.4 µM
same,TGI,[28],> 23.5 µM
same,TGI,[29],> 38.5 µM
same,TGI,[30],> 22.2 µM
same,TGI,[31],> 51.8 µM
same,TGI,[36],84.4 µM
same,TGI,[37],> 30.9 µM
same,TGI,[38],> 33.5 µM
same,TGI,[39],> 47 µM
same,TGI,[40],7.85 µM
same,TGI,[42],> 22.8 µM
same,TGI,[43],> 52.6 µM
same,TGI,[44],> 45.7 µM
same,TGI,[45],> 21.1 µM
same,TGI,[47],83.8 µM
same,TGI,[48],> 27.9 µM
same,TGI,[49],> 100 µM
same,TGI,[50],> 40 µM
same,TGI,[51],> 51.2 µM
same,TGI,[52],27.3 µM
same,TGI,[53],> 26.4 µM
same,TGI,[54],38.7 µM
same,TGI,[55],> 45.5 µM
same,TGI,[56],> 61.9 µM
same,TGI,[57],> 25.6 µM
same,TGI,[58],> 26.4 µM
same,TGI,[59],> 54.9 µM
same,TGI,[60],62.1 µM
same,TGI,[61],16.1 µM
same,TGI,[62],> 22.3 µM
same,TGI,[64],> 51.1 µM
same,TGI,[65],> 20.7 µM
same,TGI,[66],> 41 µM
same,TGI,[67],> 42.1 µM
same,TGI,[68],> 33.4 µM
same,TGI,[69],> 25.2 µM
